In patent publication US20100267561A1, “HERBICIDAL PYRIDAZINONE DERIVATIVES” (priority 2007, published 2010):
Like-named read-outs stand apart in the source and are kept apart here.

Experiments:
Assay in all cases: Test B pre-/postemergence plant response
Type in all cases: in vivo
[1] = test system: Italian ryegrass (Lolium multiflorum); details: for Ryegrass, Italian plant response rating: 8 g ai/ha; for pest or weed control at 16 g/ha / pest or weed control at 31 g/ha / pest or weed control at 62 g/ha: Lolium multiflorum, read-out: Plant response rating, Ryegrass, Italian; for pest or weed control at 16 g/ha: 16 g ai/ha; for pest or weed control at 31 g/ha: 31 g ai/ha; for pest or weed control at 62 g/ha: 62 g ai/ha
How it was run: (§1)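 Preemergence and postemergence (plants 2-18 cm, 1- to 4-leaf stage) applications used test chemicals in a non-phytotoxic solvent with surfactant. Plants were held in a greenhouse 13 to 15 days, then rated visually against controls on a 0-100 scale (0 no effect, 100 complete control).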

[2] = test system: Russian thistle (Salsola iberica); details: Preemergence
How it was run: as §1

[3] = test system: blackgrass (Alopecurus myosuroides); details: for pest or weed control at 31 g/ha: 31 g ai/ha; for pest or weed control at 62 g/ha: 62 g ai/ha
How it was run: as §1

[4] = test system: catchweed bedstraw (Galium aparine); details: Preemergence
How it was run: as §1

[5] = test system: common ragweed (Ambrosia elation); details: for Ragweed plant response rating: 8 g ai/ha; for pest or weed control at 16 g/ha / pest or weed control at 31 g/ha / pest or weed control at 62 g/ha: Ambrosia, read-out: Plant response rating, Ragweed; for pest or weed control at 16 g/ha: 16 g ai/ha; for pest or weed control at 31 g/ha: 31 g ai/ha; for pest or weed control at 62 g/ha: 62 g ai/ha
How it was run: as §1

[6] = test system: eastern black (E.B.) nightshade (Solanum ptycanthum); details: Preemergence
How it was run: as §1

[7] = test system: giant foxtail (Setaria faberii); details: for Foxtail, Giant plant response rating: 8 g ai/ha; for pest or weed control at 16 g/ha / pest or weed control at 31 g/ha / pest or weed control at 62 g/ha: Setaria faberi, read-out: Plant response rating, Foxtail, Giant; for pest or weed control at 16 g/ha: 16 g ai/ha; for pest or weed control at 31 g/ha: 31 g ai/ha; for pest or weed control at 62 g/ha: 62 g ai/ha
How it was run: as §1

[8] = test system: goosegrass (Eleusine indica); details: for Goosegrass plant response rating: 8 g ai/ha; for pest or weed control at 16 g/ha / pest or weed control at 31 g/ha / pest or weed control at 62 g/ha: Eleusine indica, read-out: Plant response rating, Goosegrass; for pest or weed control at 16 g/ha: 16 g ai/ha; for pest or weed control at 31 g/ha: 31 g ai/ha; for pest or weed control at 62 g/ha: 62 g ai/ha
How it was run: as §1

[9] = test system: johnsongrass (Sorghum halepense); details: for Johnsongrass plant response rating: 8 g ai/ha; for pest or weed control at 16 g/ha / pest or weed control at 31 g/ha / pest or weed control at 62 g/ha: Sorghum halepense, read-out: Plant response rating, Johnsongrass; for pest or weed control at 16 g/ha: 16 g ai/ha; for pest or weed control at 31 g/ha: 31 g ai/ha; for pest or weed control at 62 g/ha: 62 g ai/ha
How it was run: as §1

kochia (Kochia scoparia) = details: for Kochia plant response rating: 8 g ai/ha; for Plant response rating, Kochia: Postemergence
How it was run: as §1

[10] = test system: lambsquarters (Chenopodium album); details: for Lambsquarters plant response rating: 8 g ai/ha; for pest or weed control at 16 g/ha / pest or weed control at 31 g/ha / pest or weed control at 62 g/ha: Chenopodium album, read-out: Plant response rating, Lambsquarters; for pest or weed control at 16 g/ha: 16 g ai/ha; for pest or weed control at 31 g/ha: 31 g ai/ha; for pest or weed control at 62 g/ha: 62 g ai/ha
How it was run: as §1

[11] = test system: pigweed (Amaranthus retroflexus); details: for Pigweed plant response rating: 8 g ai/ha; for pest or weed control at 16 g/ha / pest or weed control at 31 g/ha / pest or weed control at 62 g/ha: Amaranthus retroflexus, read-out: Plant response rating, Pigweed; for pest or weed control at 16 g/ha: 16 g ai/ha; for pest or weed control at 31 g/ha: 31 g ai/ha; for pest or weed control at 62 g/ha: 62 g ai/ha
How it was run: as §1

soybean (Glycine max) = details: for Soybean plant response rating: 8 g ai/ha; for plant injury at 16 g/ha: 16 g ai/ha; for plant injury at 62 g/ha: 62 g ai/ha
How it was run: as §1

[12] = test system: woolly cupgrass (Eriochloa villosa); details: for Cupgrass, Woolly plant response rating: 8 g ai/ha; for pest or weed control at 16 g/ha / pest or weed control at 31 g/ha / pest or weed control at 62 g/ha: Eriochloa villosa, read-out: Plant response rating, Cupgrass, Woolly; for pest or weed control at 16 g/ha: 16 g ai/ha; for pest or weed control at 31 g/ha: 31 g ai/ha; for pest or weed control at 62 g/ha: 62 g ai/ha
How it was run: as §1

[13] = post-emergence, Postemergence, scale 0 to 100
[14] = post-emergence, Postemergence, scale 0 to 100, 0 no effect, 100 complete control
[15] = pre-emergence, Preemergence, scale 0 to 100 (0 no effect, 100 complete control)
[16] = pre-emergence, Preemergence, 0 to 100 scale, 0 no effect, 100 complete control
[17] = pre-emergence, Preemergence, scale 0 to 100
[18] = Alopecurus myosuroides, post-emergence, Postemergence, scale 0 to 100, 0 no effect, 100 complete control, read-out: Plant response rating, Blackgrass

Compound: CCc1c(C)c(-c2ccc(Cl)cc2)nn1-c1c(O)cnn(C)c1=O [Compound 26, 4-[3-(4-chlorophenyl)-5-ethyl-4-methyl-1H-pyrazol-1-yl]-5-hydroxy-2-methyl-3(2H)-pyridazinone]
- Ryegrass, Italian plant response rating ([1]; postemergence, 0-100 scale): 70
- pest or weed control at 16 g/ha [1, 13]: 85%
- pest or weed control at 31 g/ha [1, 14]: 85%
- pest or weed control at 62 g/ha [1, 14]: 100%
- pest or weed control at 16 g/ha [1, 15]: 90%
- pest or weed control at 31 g/ha [1, 16]: 100%
- pest or weed control at 62 g/ha [1, 17]: 100%
- Ryegrass, Italian plant response rating ([1]; Preemergence, scale 0 to 100): 50
- Plant response rating, Russian Thistle ([2]; 16 g ai/ha, scale 0 to 100 (0 no effect, 100 complete control)): 0
- Plant response rating, Russian Thistle ([2]; 31 g ai/ha, 0 to 100 scale, 0 no effect, 100 complete control): 0
- Plant response rating, Russian Thistle ([2]; 62 g ai/ha, scale 0 to 100): 0
- Russian Thistle plant response rating ([2]; 8 g ai/ha, scale 0 to 100): 0
- Blackgrass plant response rating ([3]; 8 g ai/ha, postemergence, 0-100 scale): 0
- pest or weed control at 16 g/ha ([3]; Alopecurus myosuroides, post-emergence, Postemergence, 16 g ai/ha, scale 0 to 100, read-out: Plant response rating, Blackgrass): 50%
- pest or weed control at 31 g/ha [3, 18]: 80%
- pest or weed control at 62 g/ha [3, 18]: 80%
- pest or weed control at 31 g/ha ([3]; Alopecurus myosuroides, pre-emergence, Preemergence, 0 to 100 scale, 0 no effect, 100 complete control, read-out: Plant response rating, Blackgrass): 85%
- pest or weed control at 62 g/ha ([3]; Alopecurus myosuroides, pre-emergence, Preemergence, scale 0 to 100, read-out: Plant response rating, Blackgrass): 100%
- pest or weed control at 16 g/ha ([4]; Galium aparine, pre-emergence, 16 g ai/ha, scale 0 to 100 (0 no effect, 100 complete control), read-out: Plant response rating, Galium): 0%
- pest or weed control at 31 g/ha ([4]; Galium aparine, pre-emergence, 31 g ai/ha, 0 to 100 scale, 0 no effect, 100 complete control, read-out: Plant response rating, Galium): 0%
- pest or weed control at 62 g/ha ([4]; Galium aparine, pre-emergence, 62 g ai/ha, scale 0 to 100, read-out: Plant response rating, Galium): 0%
- Galium plant response rating ([4]; 8 g ai/ha, scale 0 to 100): 0
- Ragweed plant response rating ([5]; postemergence, 0-100 scale): 0
- pest or weed control at 16 g/ha [5, 13]: 0%
- pest or weed control at 31 g/ha [5, 14]: 0%
- pest or weed control at 62 g/ha [5, 14]: 0%
- pest or weed control at 16 g/ha [5, 15]: 0%
- pest or weed control at 31 g/ha [5, 16]: 0%
- pest or weed control at 62 g/ha [5, 17]: 0%
- Ragweed plant response rating ([5]; Preemergence, scale 0 to 100): 0
- Nightshade, E. B. plant response rating ([6]; 8 g ai/ha, scale 0 to 100): 0
- pest or weed control at 16 g/ha ([6]; Solanum, pre-emergence, 16 g ai/ha, scale 0 to 100 (0 no effect, 100 complete control), read-out: Plant response rating, Nightshade, E. B.): 0%
- pest or weed control at 31 g/ha ([6]; Solanum, pre-emergence, 31 g ai/ha, 0 to 100 scale, 0 no effect, 100 complete control, read-out: Plant response rating, Nightshade, E. B.): 0%
- pest or weed control at 62 g/ha ([6]; Solanum, pre-emergence, 62 g ai/ha, scale 0 to 100, read-out: Plant response rating, Nightshade, E. B.): 0%
- Foxtail, Giant plant response rating ([7]; postemergence, 0-100 scale): 80
- Foxtail, Giant plant response rating ([7]; Preemergence, scale 0 to 100): 65
- pest or weed control at 16 g/ha [7, 13]: 95%
- pest or weed control at 31 g/ha [7, 14]: 95%
- pest or weed control at 62 g/ha [7, 14]: 100%
- pest or weed control at 16 g/ha [7, 15]: 95%
- pest or weed control at 31 g/ha [7, 16]: 100%
- pest or weed control at 62 g/ha [7, 17]: 100%
- Goosegrass plant response rating ([8]; postemergence, 0-100 scale): 0
- pest or weed control at 16 g/ha [8, 13]: 0%
- pest or weed control at 31 g/ha [8, 14]: 0%
- pest or weed control at 62 g/ha [8, 14]: 20%
- pest or weed control at 16 g/ha [8, 15]: 50%
- pest or weed control at 31 g/ha [8, 16]: 70%
- pest or weed control at 62 g/ha [8, 17]: 95%
- Goosegrass plant response rating ([8]; Preemergence, scale 0 to 100): 50
- Johnsongrass plant response rating ([9]; postemergence, 0-100 scale): 0
- Johnsongrass plant response rating ([9]; Preemergence, scale 0 to 100): 0
- pest or weed control at 16 g/ha [9, 13]: 0%
- pest or weed control at 31 g/ha [9, 14]: 20%
- pest or weed control at 62 g/ha [9, 14]: 20%
- pest or weed control at 16 g/ha [9, 15]: 0%
- pest or weed control at 31 g/ha [9, 16]: 0%
- pest or weed control at 62 g/ha [9, 17]: 50%
- Kochia plant response rating (kochia (Kochia scoparia); postemergence, 0-100 scale): 0
- Plant response rating, Kochia (kochia (Kochia scoparia); 16 g ai/ha, scale 0 to 100): 0
- Plant response rating, Kochia (kochia (Kochia scoparia); 31 g ai/ha, scale 0 to 100, 0 no effect, 100 complete control): 0
- Plant response rating, Kochia (kochia (Kochia scoparia); 62 g ai/ha, scale 0 to 100, 0 no effect, 100 complete control): 0
- Kochia plant response rating (kochia (Kochia scoparia); Preemergence, scale 0 to 100): 0
- Lambsquarters plant response rating ([10]; postemergence, 0-100 scale): 0
- pest or weed control at 16 g/ha [10, 13]: 0%
- pest or weed control at 31 g/ha [10, 14]: 0%
- pest or weed control at 62 g/ha [10, 14]: 0%
- pest or weed control at 16 g/ha [10, 15]: 0%
- pest or weed control at 31 g/ha [10, 16]: 0%
- pest or weed control at 62 g/ha [10, 17]: 0%
- Lambsquarters plant response rating ([10]; Preemergence, scale 0 to 100): 0
- Pigweed plant response rating ([11]; postemergence, 0-100 scale): 0
- pest or weed control at 16 g/ha [11, 13]: 0%
- pest or weed control at 31 g/ha [11, 14]: 0%
- pest or weed control at 62 g/ha [11, 14]: 0%
- pest or weed control at 16 g/ha [11, 15]: 0%
- pest or weed control at 31 g/ha [11, 16]: 0%
- pest or weed control at 62 g/ha [11, 17]: 0%
- Pigweed plant response rating ([11]; Preemergence, scale 0 to 100): 0
- Soybean plant response rating (soybean (Glycine max); postemergence, 0-100 scale): 0
- plant injury at 16 g/ha (soybean (Glycine max); Glycine max, post-emergence, Postemergence, scale 0 to 100, read-out: Plant response rating, Soybean): 0%
- plant injury at 62 g/ha (soybean (Glycine max); Glycine max, post-emergence, Postemergence, scale 0 to 100, 0 no effect, 100 complete control, read-out: Plant response rating, Soybean): 0%
- plant injury at 16 g/ha (soybean (Glycine max); Glycine max, pre-emergence, Preemergence, scale 0 to 100 (0 no effect, 100 complete control), read-out: Plant response rating, Soybean): 0%
- plant injury at 31 g/ha (soybean (Glycine max); Glycine max, pre-emergence, Preemergence, 31 g ai/ha, 0 to 100 scale, 0 no effect, 100 complete control, read-out: Plant response rating, Soybean): 0%
- plant injury at 62 g/ha (soybean (Glycine max); Glycine max, pre-emergence, Preemergence, scale 0 to 100, read-out: Plant response rating, Soybean): 0%
- Soybean plant response rating (soybean (Glycine max); Preemergence, scale 0 to 100): 0
- Cupgrass, Woolly plant response rating ([12]; postemergence, 0-100 scale): 85
- pest or weed control at 16 g/ha [12, 13]: 95%
- pest or weed control at 31 g/ha [12, 14]: 98%
- pest or weed control at 62 g/ha [12, 14]: 98%
- pest or weed control at 16 g/ha [12, 15]: 70%
- pest or weed control at 31 g/ha [12, 16]: 85%
- pest or weed control at 62 g/ha [12, 17]: 100%
- Cupgrass, Woolly plant response rating ([12]; Preemergence, scale 0 to 100): 20
